The subject of one test is Ba/F3 Del19/C797S cells. In words: Antiproliferative activity assay (CellTiter-Glo, 72 h). As to conditions: for IC50: Mus musculus. The test is classed as cell-based. The method, then: (§1) After incubating the cells in a 5% CO2 incubator at 37° C. for 72 hours, 25 μL of CellTiter-Glo reagent (CTG) was added to each well and the plate was gently shaken and incubated in a 5% CO2 incubator at 37° C. (protected from light) for 30 minutes. […] was measured using the Envision reader.
A general note: In ATP-based viability assays light output follows the ATP content of the culture.

The next test has as its system Ba/F3 L858R/C797S cells. The test is described as above. Type of test: cell-based. The settings on record: for IC50: Mus musculus. The method, then: as §1
The next test deals with EGFR L792H (Homo sapiens, UniProt P00533, L792H). In words: Kinase inhibition assay (HTRF).
For test [1], the target named is EGFR Del19/C797S dual mutations (Homo sapiens, UniProt P00533, C797S, form not given). Kind of test: Kinase inhibition assay (HTRF).
The target in the next test is EGFR C797S (Homo sapiens, UniProt P00533, C797S). In words: Kinase inhibition assay (HTRF).
The target of test [2] is EGFR L858R/C797S dual mutations (Homo sapiens, UniProt P00533, C797S/L858R). In words: Kinase inhibition assay (HTRF).

These results are taken from US20260069592A1 (WEISHANG (SHANGHAI) BIO-PHARMACEUTICAL CO., LTD., priority 2023, published 2026).

Where two headings read alike, the source gives them in different places.

One may read the IC50 as the midpoint of a concentration-inhibition curve.

Consider `C=CC(=O)Nc1cc(Nc2nccc(-c3cn(C)c4ccccc34)n2)c(OC)cc1N(C)CCN(C)C` [Osimertinib, osimertinib, reference compound], for which the IC50 in the test on Ba/F3 Del19/C797S cells (BaF3, 72 h) came to 1320 nM; in the test on Ba/F3 L858R/C797S cells (BaF3, 72 h), 1260 nM.
As for `C#Cc1cccc(Nc2ncnc3cc(OC)c(O[C@@H]4CCN(C)CC4(F)F)cc23)c1F` [Quinazoline derivative (I), (R)-6-[(3,3-difluoro-1-methylpiperidin-4-yl)oxy]-N-(3-ethynyl-2-fluorophenyl)-7-methoxyquinazolin-4-amine], the IC50 on EGFR L792H is 3.42 nM; in test [1], 0.131 nM; at EGFR C797S, 0.95 nM; in the test with Ba/F3 Del19/C797S cells (BaF3, Ba/F3 Del19/C797S, 72 hours, CellTiter-Glo, read-out: IC50), 0.27 nM; in the test with Ba/F3 L858R/C797S cells (BaF3, Ba/F3 L858R/C797S, 72 hours, CellTiter-Glo, read-out: IC50), 2.56 nM; in test [2], 0.037 nM. The “Relative bioactivity, times that of osimertinib” value at EGFR L792H (EGFR L792H kinase) is reported as ~49 times; in test [1] it was ~498 times; on EGFR C797S (EGFR C797S kinase) it was > 1052 times; in the test with Ba/F3 Del19/C797S cells (Ba/F3 Del19/C797S), ~4900 times; in the test on Ba/F3 L858R/C797S cells (Ba/F3 L858R/C797S) it was “approximately 490 times”; in test [2] (EGFR L858R/C797S kinase) it was ~93118 times. Also, the Relative potency % on EGFR L792H (EGFR L792H kinase) was 4918%; in test [1], 49809.0%; at EGFR C797S (EGFR C797S kinase) it was >105263%; in test [2] (EGFR L858R/C797S kinase) it was 9311751.9%. Also, the “Relative potency % (Osimertinib IC50/Quinazoline derivative (I) IC50×100%)” value in the test on Ba/F3 Del19/C797S cells (Ba/F3 Del19/C797S) is given as 490370.4%; with Ba/F3 L858R/C797S cells (Ba/F3 L858R/C797S), 49004.3%.
